# According to patent publication US20040171598A1, “Use of steroids to treat persons suffering from ocular disorders” (priority 2003, published 2004):
# Columns and labels:
# IOP = assay: Dexamethasone acetate induced IOP elevation in rabbits; type: in vivo, rabbit; settings: for IOP: rabbits with weekly subTenon's dexamethasone acetate 1 mg/kg, versus vehicle
# Procedure: Three groups of rabbits received weekly subTenon's injections of dexamethasone acetate (1 mg/kg) for 4 weeks. After two weeks, the IOPs of all three groups measured approximately 5 mm Hg. The rabbits were then treated with vehicle, 0.1% anecortave acetate, a 1% anecortave acetate by topical ocular dosing three times a day for the remaining 2 weeks. The IOP continued to increase in the vehicle treated group.
# [1] = test system: retinal neovascularization; assay: Rat pup model of retinopathy of prematurity; type: in vivo
# Procedure: Anecortave acetate was tested for its angiostatic efficacy in a rat pup model of retinopathy of prematurity (Penn, at al., Investigative Ophthalmology & Visual Science, “The Effect of an Angiostatic Steroid on Neovascularization in a Rat Model of Retinopathy of Prematurity,” Vol. 42(1):283-290, January 2001). Newborn rat pups were placed in an atmosphere of varying oxygen content. The rats received a single intravitreal injection of vehicle or anecortave acetate (500 μg) upon return to room air (day 14) or 2 days later (day 16). There was significant retinal neovascularization in the rats that receive vehicle injections.
"IOP after two weeks of dexamethasone acetate (IOP; rabbits, weekly subTenon's injections 1 mg/kg, all three groups, before anecortave acetate or vehicle dosing)",Compound,IOP (IOP; 0.1% anecortave acetate topical ocular three times a day for 2 weeks),IOP (IOP; 1% anecortave acetate topical ocular three times a day for 2 weeks),inhibition of retinal neovascularization ([1]; single intravitreal injection 500 μg 2 days after return to room air (day 16)),inhibition of retinal neovascularization ([1]; single intravitreal injection 500 μg upon return to room air (day 14))
–,"CC(=O)OCC(=O)[C@@]1(O)CC[C@H]2[C@@H]3CCC4=CC(=O)CC[C@]4(C)C3=CC[C@@]21C [anecortave acetate, 4,9(11)-pregnadien-17α,21-diol-3,20dione-21-acetate]",significantly lowered,significantly lowered,50%,66%
approximately 5 mm Hg,CC(=O)OCC(=O)[C@@]1(O)[C@H](C)C[C@H]2[C@@H]3CCC4=CC(=O)C=C[C@]4(C)[C@@]3(F)[C@@H](O)C[C@@]21C [dexamethasone acetate],–,–,–,–
